Drawing on publication PMC6245648 (Chemical research in toxicology, 2016), this text covers inhibition for seven compounds.

One may read the inhibition as the relative decrease from the control value, in per cent.

Where two headings read alike, the source gives them in different places.

Format in all cases: cell-based
Test [1] deals with T1, mitochondrial complex I (NADH: ubiquinone oxidoreductase) (Rattus norvegicus, UniProt A6K8N6+P03889+Q641Y2). The following applies: read-out: % inhibition at 10 μM.
Test [2] deals with T1, mitochondrial complex I (NADH: ubiquinone oxidoreductase). The following applies: read-out: % inhibition at 10 μM. This is another data set of the same source.
For test [3] the target is unchanged. The following applies: read-out: % inhibition at 200 μM.
Test [4] has the same target. The conditions noted are these: read-out: % inhibition at 10 μM. This is another data set of the same source.
Test [5] has the same target. The following applies: read-out: % inhibition at 10 μM. The source holds these as a separate data set.
For test [6] the target is unchanged. The conditions noted are these: read-out: % inhibition at 10 μM. This is another data set of the same source.

On to `C=C(C)[C@H]1Cc2c(ccc3c2O[C@@H]2COc4cc(OC)c(OC)cc4[C@@H]2C3=O)O1` [H, rotenone], for which, in test [1], the inhibition at 10 µM came to 88%.
For `CCN1C(=CC=Cc2oc3ccccc3[n+]2CC)Oc2ccccc21` [D, DiOC2(3)], the inhibition at 10 µM in test [2] was 79%.
With `C[n+]1ccc(-c2ccccc2)cc1` [A, 1-methyl-4-phenylpyridinium], in test [3], the inhibition at 200 µM was 12.5%.
Take `CCCN1C(=CC=CC=Cc2sc3ccccc3[n+]2CCC)Sc2ccccc21` [F, DiSC3(5)]: the inhibition at 10 µM in test [4] came out at 83%.
For the compound `CCN1C(=Cc2ccc3ccccc3[n+]2CC)C=Cc2ccccc21` [B, 2,2’-cyanine], the inhibition at 10 µM in test [5] was determined as 70.8%.
As to `CCN1C=CC(=Cc2cc[n+](CC)c3ccccc23)c2ccccc21` [C, 4,4’-cyanine], the inhibition at 10 µM in test [6] is 60.8%.
Consider `CCCN1C(=CC=Cc2sc3ccccc3[n+]2CCC)Sc2ccccc21` [E, DiSC3(3)], for which the inhibition at 10 µM in test [4] was 83%.
